According to the NIST ThermoML archive (doi:10.1021/je060271a):
Numbers after ± are expanded uncertainties.

Conditions: 283.16 K, Liquid, Vibrating tube method

## CCCC(=O)OCC(COC(=O)CCC)(COC(=O)CCC)COC(=O)CCC [pentaerythritol tetrabutyrate]
17568 kPa
  mass density: 1069.2 ± 1.3 kg/m3
17577 kPa
  mass density: 1069.2 ± 1.3 kg/m3
17586 kPa
  mass density: 1069.2 ± 1.3 kg/m3
17598 kPa
  mass density: 1069.1 ± 1.3 kg/m3
17607 kPa
  mass density: 1069.2 ± 1.3 kg/m3
17618 kPa
  mass density: 1069.1 ± 1.3 kg/m3
17628 kPa
  mass density: 1069.2 ± 1.3 kg/m3
17637 kPa
  mass density: 1069.2 ± 1.3 kg/m3
17646 kPa
  mass density: 1069.1 ± 1.3 kg/m3
17658 kPa
  mass density: 1069.1 ± 1.3 kg/m3
17668 kPa
  mass density: 1069.2 ± 1.3 kg/m3
17678 kPa
  mass density: 1069.3 ± 1.3 kg/m3
17687 kPa
  mass density: 1069.2 ± 1.3 kg/m3
17698 kPa
  mass density: 1069.3 ± 1.3 kg/m3
17708 kPa
  mass density: 1069.2 ± 1.3 kg/m3
17717 kPa
  mass density: 1069.2 ± 1.3 kg/m3
17790 kPa
  mass density: 1069.3 ± 1.3 kg/m3
17800 kPa
  mass density: 1069.4 ± 1.3 kg/m3
17810 kPa
  mass density: 1069.3 ± 1.3 kg/m3
17820 kPa
  mass density: 1069.2 ± 1.3 kg/m3
17831 kPa
  mass density: 1069.3 ± 1.3 kg/m3
17841 kPa
  mass density: 1069.3 ± 1.3 kg/m3
17850 kPa
  mass density: 1069.3 ± 1.3 kg/m3
17862 kPa
  mass density: 1069.3 ± 1.3 kg/m3
17872 kPa
  mass density: 1069.3 ± 1.3 kg/m3
17882 kPa
  mass density: 1069.3 ± 1.3 kg/m3
17892 kPa
  mass density: 1069.3 ± 1.3 kg/m3
17903 kPa
  mass density: 1069.4 ± 1.3 kg/m3
17913 kPa
  mass density: 1069.3 ± 1.3 kg/m3
17922 kPa
  mass density: 1069.4 ± 1.3 kg/m3
17935 kPa
  mass density: 1069.4 ± 1.3 kg/m3
17944 kPa
  mass density: 1069.4 ± 1.3 kg/m3
17954 kPa
  mass density: 1069.3 ± 1.3 kg/m3
17966 kPa
  mass density: 1069.4 ± 1.3 kg/m3
17976 kPa
  mass density: 1069.5 ± 1.3 kg/m3
17986 kPa
  mass density: 1069.4 ± 1.3 kg/m3
17997 kPa
  mass density: 1069.4 ± 1.3 kg/m3
18007 kPa
  mass density: 1069.4 ± 1.3 kg/m3
18017 kPa
  mass density: 1069.5 ± 1.3 kg/m3
18029 kPa
  mass density: 1069.4 ± 1.3 kg/m3
18039 kPa
  mass density: 1069.5 ± 1.3 kg/m3
18049 kPa
  mass density: 1069.3 ± 1.3 kg/m3
18061 kPa
  mass density: 1069.4 ± 1.3 kg/m3
18071 kPa
  mass density: 1069.4 ± 1.3 kg/m3
18081 kPa
  mass density: 1069.5 ± 1.3 kg/m3
18157 kPa
  mass density: 1069.4 ± 1.3 kg/m3
18188 kPa
  mass density: 1069.4 ± 1.3 kg/m3
18199 kPa
  mass density: 1069.5 ± 1.3 kg/m3
18209 kPa
  mass density: 1069.5 ± 1.3 kg/m3
18219 kPa
  mass density: 1069.6 ± 1.3 kg/m3
18231 kPa
  mass density: 1069.6 ± 1.3 kg/m3
18241 kPa
  mass density: 1069.4 ± 1.3 kg/m3
18254 kPa
  mass density: 1069.5 ± 1.3 kg/m3
18286 kPa
  mass density: 1069.5 ± 1.3 kg/m3
18361 kPa
  mass density: 1069.6 ± 1.3 kg/m3
18371 kPa
  mass density: 1069.7 ± 1.3 kg/m3
18381 kPa
  mass density: 1069.5 ± 1.3 kg/m3
18394 kPa
  mass density: 1069.7 ± 1.3 kg/m3
18404 kPa
  mass density: 1069.6 ± 1.3 kg/m3
18414 kPa
  mass density: 1069.7 ± 1.3 kg/m3
18426 kPa
  mass density: 1069.5 ± 1.3 kg/m3
18436 kPa
  mass density: 1069.6 ± 1.3 kg/m3
18449 kPa
  mass density: 1069.6 ± 1.3 kg/m3
18459 kPa
  mass density: 1069.6 ± 1.3 kg/m3
18469 kPa
  mass density: 1069.7 ± 1.3 kg/m3
18480 kPa
  mass density: 1069.6 ± 1.3 kg/m3
18492 kPa
  mass density: 1069.7 ± 1.3 kg/m3
18502 kPa
  mass density: 1069.7 ± 1.3 kg/m3
18513 kPa
  mass density: 1069.7 ± 1.3 kg/m3
18525 kPa
  mass density: 1069.7 ± 1.3 kg/m3
18536 kPa
  mass density: 1069.7 ± 1.3 kg/m3
18548 kPa
  mass density: 1069.7 ± 1.3 kg/m3
18559 kPa
  mass density: 1069.6 ± 1.3 kg/m3
18569 kPa
  mass density: 1069.6 ± 1.3 kg/m3
18579 kPa
  mass density: 1069.8 ± 1.3 kg/m3
18592 kPa
  mass density: 1069.7 ± 1.3 kg/m3
18603 kPa
  mass density: 1069.8 ± 1.3 kg/m3
18614 kPa
  mass density: 1069.7 ± 1.3 kg/m3
18627 kPa
  mass density: 1069.6 ± 1.3 kg/m3
18637 kPa
  mass density: 1069.7 ± 1.3 kg/m3
18648 kPa
  mass density: 1069.8 ± 1.3 kg/m3
18658 kPa
  mass density: 1069.7 ± 1.3 kg/m3
18669 kPa
  mass density: 1069.7 ± 1.3 kg/m3
18682 kPa
  mass density: 1069.8 ± 1.3 kg/m3
18692 kPa
  mass density: 1069.7 ± 1.3 kg/m3
18703 kPa
  mass density: 1069.8 ± 1.3 kg/m3
18716 kPa
  mass density: 1069.7 ± 1.3 kg/m3
18726 kPa
  mass density: 1069.8 ± 1.3 kg/m3
18737 kPa
  mass density: 1069.8 ± 1.3 kg/m3
18750 kPa
  mass density: 1069.8 ± 1.3 kg/m3
18761 kPa
  mass density: 1069.7 ± 1.3 kg/m3
18772 kPa
  mass density: 1069.7 ± 1.3 kg/m3
18783 kPa
  mass density: 1069.8 ± 1.3 kg/m3
18794 kPa
  mass density: 1069.8 ± 1.3 kg/m3
18806 kPa
  mass density: 1069.8 ± 1.3 kg/m3
18817 kPa
  mass density: 1069.9 ± 1.3 kg/m3
18830 kPa
  mass density: 1069.9 ± 1.3 kg/m3
18841 kPa
  mass density: 1069.9 ± 1.3 kg/m3
18851 kPa
  mass density: 1069.8 ± 1.3 kg/m3
18875 kPa
  mass density: 1069.9 ± 1.3 kg/m3
18886 kPa
  mass density: 1069.9 ± 1.3 kg/m3
18910 kPa
  mass density: 1069.9 ± 1.3 kg/m3
18921 kPa
  mass density: 1069.9 ± 1.3 kg/m3
18934 kPa
  mass density: 1069.9 ± 1.3 kg/m3
18945 kPa
  mass density: 1069.9 ± 1.3 kg/m3
19002 kPa
  mass density: 1069.9 ± 1.3 kg/m3
19015 kPa
  mass density: 1069.9 ± 1.3 kg/m3
19026 kPa
  mass density: 1070 ± 1.3 kg/m3
19039 kPa
  mass density: 1070 ± 1.3 kg/m3
19050 kPa
  mass density: 1070 ± 1.3 kg/m3
19062 kPa
  mass density: 1070 ± 1.3 kg/m3
19073 kPa
  mass density: 1070 ± 1.3 kg/m3
19084 kPa
  mass density: 1069.9 ± 1.3 kg/m3
19097 kPa
  mass density: 1070 ± 1.3 kg/m3
19108 kPa
  mass density: 1070.1 ± 1.3 kg/m3
19119 kPa
  mass density: 1070.1 ± 1.3 kg/m3
19132 kPa
  mass density: 1070.1 ± 1.3 kg/m3
19154 kPa
  mass density: 1069.9 ± 1.3 kg/m3
19168 kPa
  mass density: 1070 ± 1.3 kg/m3
19179 kPa
  mass density: 1070.1 ± 1.3 kg/m3
19190 kPa
  mass density: 1070 ± 1.3 kg/m3
19204 kPa
  mass density: 1070 ± 1.3 kg/m3
19215 kPa
  mass density: 1070.1 ± 1.3 kg/m3
19226 kPa
  mass density: 1070.1 ± 1.3 kg/m3
19240 kPa
  mass density: 1070.1 ± 1.3 kg/m3
19251 kPa
  mass density: 1070.1 ± 1.3 kg/m3
19262 kPa
  mass density: 1070.1 ± 1.3 kg/m3
19274 kPa
  mass density: 1070.1 ± 1.3 kg/m3
19287 kPa
  mass density: 1070.1 ± 1.3 kg/m3
19299 kPa
  mass density: 1070 ± 1.3 kg/m3
19310 kPa
  mass density: 1070.2 ± 1.3 kg/m3
19323 kPa
  mass density: 1070.1 ± 1.3 kg/m3
19335 kPa
  mass density: 1070.2 ± 1.3 kg/m3
19408 kPa
  mass density: 1070.2 ± 1.3 kg/m3
19444 kPa
  mass density: 1070.2 ± 1.3 kg/m3
19482 kPa
  mass density: 1070.2 ± 1.3 kg/m3
19493 kPa
  mass density: 1070.2 ± 1.3 kg/m3
19507 kPa
  mass density: 1070.1 ± 1.3 kg/m3
19518 kPa
  mass density: 1070.1 ± 1.3 kg/m3
19530 kPa
  mass density: 1070.2 ± 1.3 kg/m3
19544 kPa
  mass density: 1070.2 ± 1.3 kg/m3
19556 kPa
  mass density: 1070.1 ± 1.3 kg/m3
19568 kPa
  mass density: 1070.3 ± 1.3 kg/m3
19579 kPa
  mass density: 1070.3 ± 1.3 kg/m3
19593 kPa
  mass density: 1070.2 ± 1.3 kg/m3
19605 kPa
  mass density: 1070.3 ± 1.3 kg/m3
